According to patent US9586951B2 (FUJIFILM Corporation, priority 2013, dated 2017):

Experiments:
[1] = tested on: human non-small cell lung cancer cell line NCI-H460; assay: Cell proliferation inhibition test by sensitivity-enhancing to ionizing radiation (Cell Titer Glo); type: cell-based; conditions: Homo sapiens, NCI-H460, 120 h, concentration in which SER became 2, NCI-H460 cells, ionizing radiation 2 Gy, cultured 120 hour
Summary of the method: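 Cells seeded at 2×10^3 cells/mL in RPMI-1640 with 10% FBS; after 24 h, compound added (0.1% DMSO), and 30 min later half the plates irradiated at 2 Gy. After 120 hour at 37° C, viability by Cell Titer Glo luminescence; SER2 is the concentration giving SER of 2 by sigmoidal fit.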

[2] = biological target: T1, ATM (Homo sapiens, UniProt Q13315); assay: ATM inhibition test (phosphorylation of Chk2 generated by ionizing radiation, AlphaScreen SureFire); type: cell-based; conditions: phosphorylated Chk2 in NCI-H460 cells, ionizing radiation 8Gy, 1 hour after test compound treatment; read-out: ATM inhibitory activity
T1 construct: detecting phosphorylation of Chk2 in a human non-small cell lung cancer cell line NCI-H460 (ATCC company); host or cells: NCI-H460 human non-small cell lung cancer cells
T1 sequence (Q13315 whole entry): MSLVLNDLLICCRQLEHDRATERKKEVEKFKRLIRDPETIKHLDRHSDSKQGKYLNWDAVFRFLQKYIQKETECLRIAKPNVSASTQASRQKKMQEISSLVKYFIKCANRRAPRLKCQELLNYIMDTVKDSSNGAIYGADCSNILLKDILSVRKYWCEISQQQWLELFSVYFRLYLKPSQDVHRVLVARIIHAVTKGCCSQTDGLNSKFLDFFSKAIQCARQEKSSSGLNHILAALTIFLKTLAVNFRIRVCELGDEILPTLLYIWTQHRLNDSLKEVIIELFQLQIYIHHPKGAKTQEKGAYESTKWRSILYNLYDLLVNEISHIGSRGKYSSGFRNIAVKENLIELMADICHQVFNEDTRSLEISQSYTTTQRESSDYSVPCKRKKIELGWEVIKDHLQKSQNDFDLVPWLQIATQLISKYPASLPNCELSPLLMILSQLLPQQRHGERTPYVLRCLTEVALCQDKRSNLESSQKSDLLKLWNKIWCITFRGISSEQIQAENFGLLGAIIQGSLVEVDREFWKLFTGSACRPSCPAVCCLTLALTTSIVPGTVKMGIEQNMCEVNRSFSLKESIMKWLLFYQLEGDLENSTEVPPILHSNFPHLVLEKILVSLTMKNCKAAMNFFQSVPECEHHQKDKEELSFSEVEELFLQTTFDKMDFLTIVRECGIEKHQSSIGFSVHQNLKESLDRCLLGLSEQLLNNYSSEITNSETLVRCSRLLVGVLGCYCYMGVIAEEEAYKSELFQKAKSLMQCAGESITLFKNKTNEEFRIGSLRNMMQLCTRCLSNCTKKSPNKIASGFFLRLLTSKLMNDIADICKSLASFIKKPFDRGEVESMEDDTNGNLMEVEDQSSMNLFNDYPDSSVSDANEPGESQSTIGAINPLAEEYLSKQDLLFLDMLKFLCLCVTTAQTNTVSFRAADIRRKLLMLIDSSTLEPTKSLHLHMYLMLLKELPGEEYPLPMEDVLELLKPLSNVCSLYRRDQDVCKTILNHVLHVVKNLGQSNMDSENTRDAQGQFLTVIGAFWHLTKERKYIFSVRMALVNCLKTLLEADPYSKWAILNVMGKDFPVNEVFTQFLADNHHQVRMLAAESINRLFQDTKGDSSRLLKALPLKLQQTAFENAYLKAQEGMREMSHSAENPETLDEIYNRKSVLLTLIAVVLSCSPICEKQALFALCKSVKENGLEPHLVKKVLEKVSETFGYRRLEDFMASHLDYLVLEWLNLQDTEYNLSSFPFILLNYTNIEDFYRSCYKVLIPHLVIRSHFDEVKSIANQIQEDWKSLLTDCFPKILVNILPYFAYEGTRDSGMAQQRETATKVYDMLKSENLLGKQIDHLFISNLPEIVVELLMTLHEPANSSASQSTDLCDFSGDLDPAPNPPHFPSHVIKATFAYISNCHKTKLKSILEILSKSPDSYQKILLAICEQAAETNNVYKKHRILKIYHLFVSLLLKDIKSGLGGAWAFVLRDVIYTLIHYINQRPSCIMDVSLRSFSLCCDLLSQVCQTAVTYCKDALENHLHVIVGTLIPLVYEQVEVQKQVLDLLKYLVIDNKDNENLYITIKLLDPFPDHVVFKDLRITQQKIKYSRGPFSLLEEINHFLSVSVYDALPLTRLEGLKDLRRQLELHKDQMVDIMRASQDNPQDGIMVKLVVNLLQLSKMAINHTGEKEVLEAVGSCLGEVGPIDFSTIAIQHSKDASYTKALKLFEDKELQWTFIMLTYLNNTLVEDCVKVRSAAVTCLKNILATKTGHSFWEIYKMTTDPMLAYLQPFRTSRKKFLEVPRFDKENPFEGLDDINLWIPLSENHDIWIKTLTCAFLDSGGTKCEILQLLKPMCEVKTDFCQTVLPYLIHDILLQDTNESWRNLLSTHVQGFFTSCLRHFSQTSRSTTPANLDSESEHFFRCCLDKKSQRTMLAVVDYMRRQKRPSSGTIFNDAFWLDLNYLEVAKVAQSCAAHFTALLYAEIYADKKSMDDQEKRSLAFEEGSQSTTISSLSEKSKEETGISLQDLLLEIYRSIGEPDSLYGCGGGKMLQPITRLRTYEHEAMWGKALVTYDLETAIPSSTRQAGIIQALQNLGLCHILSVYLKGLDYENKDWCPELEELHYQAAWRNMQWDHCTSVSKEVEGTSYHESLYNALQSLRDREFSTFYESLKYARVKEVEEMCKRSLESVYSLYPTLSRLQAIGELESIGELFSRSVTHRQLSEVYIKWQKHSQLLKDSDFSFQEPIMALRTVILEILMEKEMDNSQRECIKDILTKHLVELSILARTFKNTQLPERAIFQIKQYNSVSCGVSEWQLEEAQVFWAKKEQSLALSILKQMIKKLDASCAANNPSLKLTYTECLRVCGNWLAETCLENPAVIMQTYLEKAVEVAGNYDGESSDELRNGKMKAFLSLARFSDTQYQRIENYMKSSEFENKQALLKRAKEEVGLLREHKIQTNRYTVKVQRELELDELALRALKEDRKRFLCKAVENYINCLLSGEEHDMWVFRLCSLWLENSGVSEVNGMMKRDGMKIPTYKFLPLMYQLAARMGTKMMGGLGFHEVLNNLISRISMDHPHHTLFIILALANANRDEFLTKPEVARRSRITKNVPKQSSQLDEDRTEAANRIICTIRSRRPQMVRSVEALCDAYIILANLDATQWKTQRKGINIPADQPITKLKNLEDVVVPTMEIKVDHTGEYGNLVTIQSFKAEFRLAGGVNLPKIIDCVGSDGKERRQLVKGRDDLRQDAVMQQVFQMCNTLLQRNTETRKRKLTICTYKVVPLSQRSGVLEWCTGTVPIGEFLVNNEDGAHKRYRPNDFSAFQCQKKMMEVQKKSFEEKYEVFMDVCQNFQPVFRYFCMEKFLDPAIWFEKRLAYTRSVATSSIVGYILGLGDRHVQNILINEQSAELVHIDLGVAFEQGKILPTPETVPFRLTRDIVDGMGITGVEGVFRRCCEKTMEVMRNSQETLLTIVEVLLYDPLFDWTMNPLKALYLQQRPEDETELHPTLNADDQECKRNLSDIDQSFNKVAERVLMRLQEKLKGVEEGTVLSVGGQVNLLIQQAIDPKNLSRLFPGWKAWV
Summary of the method: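 NCI-H460 cells, compound 1 h pre-treatment, 8Gy IR, further 1 h at 37° C in 5% CO2. Read-out: phospho-Chk2 via AlphaScreen SureFire. % inhibition relative to IR-induced signal window (irradiated vs non-irradiated drug-free wells).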

| IC50 [2] | IC50 ([1]; read-out: SER2) | SMILES | SER2 (concentration at which the radiation sensitivity-enhancement ratio reaches 2) [1] |
| --- | --- | --- | --- |
| 100 to 500 nM | – | COc1ncc(CNc2ccc3c(c2)Cc2cccc(-c4cc(N5CCOCC5)cc(=O)[nH]4)c2O3)cc1F [Example 2-2-18, 6-(7-(((5-Fluoro-6-methoxypyridin-3-yl)methyl)amino)-9H-xanthen-4-yl)-4-morpholino pyridin-2(1H)-one] | 500 to 2000 nM |
| < 100 nM | – | Cc1cc(CNc2ccc3c(c2)Cc2cccc(-c4cc(N5CCOCC5)cc(=O)[nH]4)c2O3)ccn1 [Example 2-2-20, 6-(7-(((2-Methylpyridin-4-yl)methyl)amino)-9H-xanthen-4-yl)-4-morpholino pyridin-2(1H)-one] | 500 to 2000 nM |
| < 100 nM | – | COc1cc(CNc2ccc3c(c2)Cc2cccc(-c4cc(N5CCOCC5)cc(=O)[nH]4)c2O3)cnc1OC [Example 2-2-35, 6-(7-(((5,6-Dimethoxypyridin-3-yl)methyl)amino)-9H-xanthen-4-yl)-4-morpholino pyridin-2(1H)-one] | 500 to 2000 nM |
| 100 to 500 nM | – | COc1cnc(CNc2ccc3c(c2)Cc2cccc(-c4cc(N5CCOCC5)cc(=O)[nH]4)c2O3)cn1 [Example 2-2-36, 6-(7-(((5-Methoxypyrazin-2-yl)methyl)amino)-9H-xanthen-4-yl)-4-morpholino pyridin-2(1H)-one] | 500 to 2000 nM |
| < 100 nM | – | CN(C)c1cnc(CNc2ccc3c(c2)Cc2cccc(-c4cc(N5CCOCC5)cc(=O)[nH]4)c2O3)cn1 [Example 2-2-37] | 500 to 2000 nM |
| < 100 nM | – | COc1ccnc(CNc2ccc3c(c2)Cc2cccc(-c4cc(N5CCOCC5)cc(=O)[nH]4)c2O3)c1 [Example 2-2-38, 6-(7-(((4-Methoxypyridin-2-yl)methyl)amino)-9H-xanthen-4-yl)-4-morpholino pyridin-2(1H)-one] | 100 to 500 nM |
| < 100 nM | – | Cc1ccnc(CNc2ccc3c(c2)Cc2cccc(-c4cc(N5CCOCC5)cc(=O)[nH]4)c2O3)c1 [Example 2-2-40, 6-(7-(((4-Methylpyridin-2-yl)methyl)amino)-9H-xanthen-4-yl)-4-morpholino pyridin-2(1H)-one] | 100 to 500 nM |
| 100 to 500 nM | – | Cc1ccc(CNc2ccc3c(c2)Cc2cccc(-c4cc(N5CCOCC5)cc(=O)[nH]4)c2O3)nc1 [Example 2-2-41, 6-(7-(((5-Methylpyridin-2-yl)methyl)amino)-9H-xanthen-4-yl)-4-morpholino pyridin-2(1H)-one] | 100 to 500 nM |
| < 100 nM | – | CCOc1cncc(CNc2ccc3c(c2)Cc2cccc(-c4cc(N5CCOCC5)cc(=O)[nH]4)c2O3)c1 [Example 2-2-48, 6-(7-(((5-Ethoxypyridin-3-yl)methyl)amino)-9H-xanthen-4-yl)-4-morpholino pyridin-2(1H)-one] | 500 to 2000 nM |
| < 100 nM | – | O=c1cc(N2CCOCC2)cc(-c2cccc3c2Oc2ccc(NCc4cncc(C5CC5)c4)cc2C3)[nH]1 [Example 2-2-50, 6-(7-(((5-Cyclopropylpyridin-3-yl)methyl)amino)-9H-xanthen-4-yl)-4-morpholino pyridin-2 (1H)-one] | 100 to 500 nM |
| < 100 nM | – | COc1cc(OC)nc(CNc2ccc3c(c2)Cc2cccc(-c4cc(N5CCOCC5)cc(=O)[nH]4)c2O3)n1 [Example 2-2-51, 6-(7-(((4,6-Dimethoxypyrimidin-2-yl)methyl)amino)-9H-xanthen-4-yl)-4-morpholino pyridin-2 (1H)-one] | 500 to 2000 nM |
| < 100 nM | – | O=c1cc(N2CCOCC2)cc(-c2cccc3c2Oc2ccc(NCc4ccnc(Cl)c4)cc2C3)[nH]1 [Example 2-2-52, 6-(7-(((2-Chloropyridin-4-yl)methyl)amino)-9H-xanthen-4-yl)-4-morpholino pyridin-2 (1H)-one] | 500 to 2000 nM |
| < 100 nM | – | O=c1cc(N2CCOCC2)cc(-c2cccc3c2Oc2ccc(NCc4ccnc(Br)c4)cc2C3)[nH]1 [Example 2-2-53, 6-(7-(((2-Bromopyridin-4-yl)methyl)amino)-9H-xanthen-4-yl)-4-morpholino pyridin-2 (1H)-one] | 500 to 2000 nM |
| < 100 nM | – | O=c1cc(N2CCOCC2)cc(-c2cccc3c2Oc2ccc(NCc4cncc(-n5cccc5)c4)cc2C3)[nH]1 [Example 2-2-58, 6-(7-(((5-(1H-Pyrrol-1-yl)pyridin-3-yl)methyl)amino)-9H-xanthen-4-yl)-4-morpholino pyridin-2(1H)-one] | 500 to 2000 nM |
| < 100 nM | – | O=c1cc(N2CCOCC2)cc(-c2cccc3c2Oc2ccc(NCc4cncc(C5C=CCC5)c4)cc2C3)[nH]1 (stereo not drawn) [Example 2-2-60, 6-(7-(((5-(Cyclopent-2-en-1-yl)pyridin-3-yl)methyl)amino)-9H-xanthen-4-yl)-4-morpholino pyridin-2(1H)-one] | 500 to 2000 nM |
| < 100 nM | – | O=c1cc(N2CCOCC2)cc(-c2cccc3c2Oc2ccc(NCc4cc(Cl)ccn4)cc2C3)[nH]1 [Example 2-2-64, 6-(7-(((4-Chloropyridin-2-yl)methyl)amino)-9H-xanthen-4-yl)-4-morpholino pyridin-2(1H)-one] | 100 to 500 nM |
| < 100 nM | – | O=c1cc(N2CCOCC2)cc(-c2cccc3c2Oc2ccc(NCc4cncc(N5CCC5)c4)cc2C3)[nH]1 [Example 2-2-69, 6-(7-(((5-(Azetidin-1-yl)pyridin-3-yl)methyl)amino)-9H-xanthen-4-yl)-4-morpholino pyridin-2(1H)-one] | 500 to 2000 nM |
| < 100 nM | – | O=c1cc(N2CCOCC2)cc(-c2cccc3c2Oc2ccc(NCc4cc(-n5cccc5)ccn4)cc2C3)[nH]1 [Example 2-2-71, 6-(7-(((4-(1H-Pyrrol-1-yl)pyridin-2-yl)methyl)amino)-9H-xanthen-4-yl)-4-morpholino pyridin-2(1H)-one] | 100 to 500 nM |
| < 100 nM | 100 to 500 nM | O=c1cc(N2CCOCC2)cc(-c2cccc3c2Oc2ccc(NCc4cc(-c5cccnc5)ccn4)cc2C3)[nH]1 [Example 2-2-72] | – |
| < 100 nM | – | Cn1cc(-c2ccnc(CNc3ccc4c(c3)Cc3cccc(-c5cc(N6CCOCC6)cc(=O)[nH]5)c3O4)c2)cn1 [Example 2-2-74, 6-(7-(((4-(1-Methyl-1H-pyrazol-4-yl)pyridin-2-yl)methyl)amino)-9H-xanthen-4-yl)-4-morpholino pyridin-2(1H)-one] | 100 to 500 nM |
| 100 to 500 nM | – | O=c1cc(N2CCOCC2)cc(-c2cccc3c2Oc2ccc(NCc4cncc(Cl)n4)cc2C3)[nH]1 [Example 2-13-1, 6-(7-(((6-chloropyrazin-2-yl)methyl)amino)-9H-xanthen-4-yl)-4-morpholinopyridin-2(1H)-one] | 500 to 2000 nM |
| < 100 nM | – | O=c1cc(N2CCOCC2)cc(-c2cccc3c2Oc2ccc(NCc4cncc(C(F)(F)F)c4)cc2C3)[nH]1 [Example 2-13-4, 4-Morpholino-6-(7-(((5-(trifluoromethyl)pyridin-3-yl)methyl)amino)-9H-xanthen-4-yl)pyridin-2(1H)-one] | 100 to 500 nM |
| < 100 nM | – | CN(C)c1nccc(CNc2ccc3c(c2)Cc2cccc(-c4cc(N5CCOCC5)cc(=O)[nH]4)c2O3)n1 [Example 2-13-5, 6-(7-(((2-(Dimethylamino)pyrimidin-4-yl)methyl)amino)-9H-xanthen-4-yl)-4-morpholino pyridin-2(1H)-one] | 500 to 2000 nM |
| < 100 nM | – | O=c1cc(N2CCOCC2)cc(-c2cccc3c2Oc2ccc(NCc4cccs4)cc2C3)[nH]1 [Example 2-13-6, 4-Morpholino-6-(7-((thiophen-2-ylmethyl)amino)-9H-xanthen-4-yl) pyridin-2(1H)-one] | 500 to 2000 nM |
| < 100 nM | – | O=c1cc(N2CCOCC2)cc(-c2cccc3c2Oc2ccc(NCc4ccc(Cl)s4)cc2C3)[nH]1 [Example 2-13-7, 6-(7-(((5-Chlorothiophen-2-yl)methyl)amino)-9H-xanthen-4-yl)-4-morpholino pyridin-2(1H)-one] | 500 to 2000 nM |
| < 100 nM | – | COc1ccnc(CNc2ccc3c(c2)Cc2cccc(-c4cc(N5CCOCC5)cc(=O)[nH]4)c2O3)n1 [Example 2-13-8, 6-(7-(((4-Methoxypyrimidin-2-yl)methyl)amino)-9H-xanthen-4-yl)-4-morpholino pyridin-2(1H)-one] | 500 to 2000 nM |
| < 100 nM | – | COc1cncc(CNc2ccc3c(c2)Cc2cccc(-c4cc(N5CCOCC5)cc(=O)[nH]4)c2O3)n1 [Example 2-13-9, 6-(7-(((6-Methoxypyrazin-2-yl)methyl)amino)-9H-xanthen-4-yl)-4-morpholino pyridin-2(1H)-one] | 500 to 2000 nM |
